Reference: patent US20040023211A1, “System and method for optimizing drug theraphy for the treatment of diseases” (priority 2000, published 2004)
Like-named read-outs stand apart in the source and are kept apart here.

How the values were obtained:
[1] = Amprenavir trough plasma concentration (Cmin, 12 hours after dosing) by LC-MS/MS in treatment-experienced patients; assay type: in vivo, adults infected with HIV-1; conditions: amprenavir 1200 mg bid with abacavir, efavirenz and ritonavir or nelfinavir, 17 patients
Method: Patients were enrolled into three parallel treatment groups that included abacavir 300 mg bid, amprenavir 1200 mg bid, and efavirenz 600 mg daily with either low dose ritonavir at 200 mg BID, high dose ritonavir at 500 mg bid, or nelfinavir 1250 mg bid.
Genotyping (VircoGEN II™, VIRCO) and VIRTUAL PHENOTYPE™ were performed on baseline samples. Viral load data were collected at baseline (mean of two pre-therapy samples) and at week 24. Serial pharmacokinetic samples were collected over 12 hours after week 3 for ritonavir-boosted regimens and after week 2 for nelfinavir-boosted regimens.
Amprenavir concentrations in plasma were determined by a validated LC-MS/MS method.
For amprenavir, nelfinavir, and ritonavir, the concentration 12 hours after dosing was used as the Cmin. For each drug, relationships between viral load change at week 24 and the Cmin, fold-change in resistance, and NIQ were fit to a sigmoidal maximum effect model.

HIV-1 = assay type: in vivo, adults infected with HIV-1; conditions: change in viral load at week 24, sigmoidal Emax model, p<0.05
Method: The normalized inhibitory quotient (NIQ) was determined as: [formula]
Where the IQ in an individual patient (IQpatient) was calculated as ratio of the patient's trough concentration (Cmin) to the susceptibility of the patient's virus to the drug, expressed as fold change compared to wild type virus (Virtual Phenotype). The IQpt was then related to the reference inhibitory quotient (IQref), in which the mean population trough concentration of the drug from the product label was divided by the cut-off value of the fold change for susceptible viruses.
For amprenavir, nelfinavir, and ritonavir, the concentration 12 hours after dosing was used as the Cmin. […]

HIV = conditions: cited from earlier work; for % of patients with viral load below 400 copies/mL at week 24: lopinavir plus efavirenz and 2 NRTIs, 56 patients

## CC(C)CN(C[C@@H](O)[C@H](Cc1ccccc1)NC(=O)O[C@H]1CCOC1)S(=O)(=O)c1ccc(N)cc1 [Amprenavir, amprenavir]
[1]
  Cmin, range: (264-3453) ng/ml
HIV-1
  correlation of NIQ with outcome at 24 weeks: correlated with outcome at 24 weeks

## Cc1cccc(C)c1OCC(=O)N[C@@H](Cc1ccccc1)[C@@H](O)C[C@H](Cc1ccccc1)NC(=O)[C@H](C(C)C)N1CCCNC1=O [lopinavir]
HIV; lopinavir IQ 4-15
  % of patients with viral load below 400 copies/mL at week 24: 80%
HIV; lopinavir IQ <4
  % of patients with viral load below 400 copies/mL at week 24: 70%
HIV; lopinavir IQ >15
  % of patients with viral load below 400 copies/mL at week 24: 100%
HIV; lopinavir trough concentration alone, week 24
  correlation of trough concentration alone with virologic outcome: no correlation with virologic outcome was found
